This note sets out measurements from ChEMBL document CHEMBL1131216, “Anhydrolide macrolides. 2. Synthesis and antibacterial activity of 2,3-anhydro-6-O-methyl 11,12-carbazate erythromycin A analogues” (1998).

≈ marks a conversion by molar mass, not a printed value.

Common to all, as to type: functional
In test [1] the test system is Streptococcus pyogenes. In words: In vitro antibacterial activity of PIU2584 strain of Gram positive bacteria Streptococcus pyogenes.
The next test relates to Haemophilus influenzae. In words: In vitro antibacterial activity of DILL strain of Gram negative bacteria Haemophilus influenzae.
For test [2], the system named is Staphylococcus aureus. Description: In vitro antibacterial activity of 6538P strain of Gram positive bacteria Staphylococcus aureus.
Test [3] relates to Streptococcus pneumoniae. Description: In vitro antibacterial activity of ATCC 6303 strain of Gram positive bacteria Streptococcus pneumoniae.
The test system of test [4] is Streptococcus pyogenes. In words: In vitro antibacterial activity of 930 strain of Gram positive bacteria Streptococcus pyogenes.
Test [5] deals with Streptococcus pneumoniae. Description: In vitro antibacterial activity of 5649 strain of Gram positive bacteria Streptococcus pneumoniae.
The subject of test [6] is Streptococcus pneumoniae. In words: In vitro antibacterial activity of 5979 strain of Gram positive bacteria Streptococcus pneumoniae.
Test [7] has as its system Staphylococcus aureus. In words: In vitro antibacterial activity of A-5278 strain of Gram positive bacteria Staphylococcus aureus.
Test [8] concerns Streptococcus pyogenes. In words: In vitro antibacterial activity of EES61 strain of Gram positive bacteria Streptococcus pyogenes.
Test [9] deals with Staphylococcus aureus. In words: In vitro antibacterial activity of A5177 strain of Gram positive bacteria Staphylococcus aureus.

Regarding `CC[C@H]1OC(=O)/C(C)=C/[C@H](C)[C@@H](O[C@@H]2O[C@H](C)C[C@H](N(C)C)[C@H]2O)[C@@](C)(OC)C[C@@H](C)C(=O)[C@H](C)[C@H]2N(NCc3ccccn3)C(=O)O[C@]12C`, the MIC with Streptococcus pyogenes [1] is 1 µg/mL (≈ 1.42 µM); against Haemophilus influenzae, 8 µg/mL (≈ 11.4 µM); with Staphylococcus aureus [2] it was 0.39 µg/mL (≈ 0.555 µM); with Streptococcus pneumoniae [3], 0.06 µg/mL (≈ 0.0854 µM); with Streptococcus pyogenes [4], over 128 µg/mL; with Streptococcus pneumoniae [5] it was 1 µg/mL (≈ 1.42 µM). Also, the MIC in the test on Streptococcus pneumoniae [6] is over 128 µg/mL; against Staphylococcus aureus [7] it was over 100 µg/mL; in the test on Streptococcus pyogenes [8] it was 0.06 µg/mL (≈ 0.0854 µM); against Staphylococcus aureus [9] it was 0.39 µg/mL (≈ 0.555 µM).

On to `CC[C@H]1OC(=O)/C(C)=C/[C@H](C)[C@@H](O[C@@H]2O[C@H](C)C[C@H](N(C)C)[C@H]2O)[C@@](C)(OC)C[C@@H](C)C(=O)[C@H](C)[C@H]2N(NCCCc3ccccc3O)C(=O)O[C@]12C`, for which the MIC in the test on Streptococcus pyogenes [1] was 2 µg/mL (≈ 2.68 µM); against Haemophilus influenzae it was 16 µg/mL (≈ 21.4 µM); against Staphylococcus aureus [2], 0.2 µg/mL (≈ 0.268 µM); in the test on Streptococcus pneumoniae [3] it was 0.03 µg/mL (≈ 0.0402 µM); against Streptococcus pyogenes [4], over 128 µg/mL; against Streptococcus pneumoniae [5] it was 2 µg/mL (≈ 2.68 µM). The MIC is over 128 µg/mL against Streptococcus pneumoniae [6], over 100 µg/mL against Staphylococcus aureus [7], 0.03 µg/mL (≈ 0.0402 µM) with Streptococcus pyogenes [8] and 0.2 µg/mL (≈ 0.268 µM) with Staphylococcus aureus [9].

Turning to `CC[C@H]1OC(=O)/C(C)=C/[C@H](C)[C@@H](O[C@@H]2O[C@H](C)C[C@H](N(C)C)[C@H]2O)[C@@](C)(OC)C[C@@H](C)C(=O)[C@H](C)[C@H]2N(NCCCc3ccnc4ccccc34)C(=O)O[C@]12C`, the MIC in the test with Streptococcus pyogenes [1] was 0.5 µg/mL (≈ 0.64 µM); against Haemophilus influenzae, 2 µg/mL (≈ 2.56 µM); in the test with Staphylococcus aureus [2], 0.2 µg/mL (≈ 0.256 µM); against Streptococcus pneumoniae [3] it was 0.004 µg/mL (≈ 0.00512 µM); in the test with Streptococcus pyogenes [4], over 64 µg/mL; with Streptococcus pneumoniae [5], 1 µg/mL (≈ 1.28 µM). The MIC in the test on Streptococcus pneumoniae [6] was over 64 µg/mL; in the test with Staphylococcus aureus [7], over 100 µg/mL; against Streptococcus pyogenes [8], 0.004 µg/mL (≈ 0.00512 µM); in the test with Staphylococcus aureus [9], 0.1 µg/mL (≈ 0.128 µM).

Take `CC[C@H]1OC(=O)/C(C)=C/[C@H](C)[C@@H](O[C@@H]2O[C@H](C)C[C@H](N(C)C)[C@H]2O)[C@@](C)(OC)C[C@@H](C)C(=O)[C@H](C)[C@H]2N(NC/C=C/c3cccc4ccccc34)C(=O)O[C@]12C`: the MIC was 1 µg/mL (≈ 1.29 µM) against Streptococcus pyogenes [1]; 16 µg/mL (≈ 20.6 µM) in the test on Haemophilus influenzae; 0.39 µg/mL (≈ 0.501 µM) against Staphylococcus aureus [2]; 0.125 µg/mL (≈ 0.161 µM) in the test with Streptococcus pneumoniae [3]; 8 µg/mL (≈ 10.3 µM) against Streptococcus pyogenes [4]; 1 µg/mL (≈ 1.29 µM) in the test with Streptococcus pneumoniae [5]. Besides, the MIC against Streptococcus pneumoniae [6] turned out to be 16 µg/mL (≈ 20.6 µM); against Staphylococcus aureus [7] it was 25 µg/mL (≈ 32.1 µM); against Streptococcus pyogenes [8] it was 0.125 µg/mL (≈ 0.161 µM); with Staphylococcus aureus [9] it was 0.39 µg/mL (≈ 0.501 µM).

Regarding `CC[C@H]1OC(=O)/C(C)=C/[C@H](C)[C@@H](O[C@@H]2O[C@H](C)C[C@H](N(C)C)[C@H]2O)[C@@](C)(OC)C[C@@H](C)C(=O)[C@H](C)[C@H]2N(NCc3cc([N+](=O)[O-])ccc3O)C(=O)O[C@]12C`, the MIC is 0.25 µg/mL (≈ 0.328 µM) against Streptococcus pyogenes [1]; 4 µg/mL (≈ 5.24 µM) in the test on Haemophilus influenzae; 0.1 µg/mL (≈ 0.131 µM) in the test with Staphylococcus aureus [2]; 0.03 µg/mL (≈ 0.0393 µM) against Streptococcus pneumoniae [3]; over 128 µg/mL against Streptococcus pyogenes [4]; 0.25 µg/mL (≈ 0.328 µM) with Streptococcus pneumoniae [5]. Moreover, the values for the MIC against Streptococcus pneumoniae [6], in the test on Staphylococcus aureus [7] and against Streptococcus pyogenes [8] were over 128 µg/mL, over 100 µg/mL and 0.015 µg/mL (≈ 0.0197 µM), respectively.

In the case of `CC[C@H]1OC(=O)/C(C)=C/[C@H](C)[C@@H](O[C@@H]2O[C@H](C)C[C@H](N(C)C)[C@H]2O)[C@@](C)(OC)C[C@@H](C)C(=O)[C@@H](C)[C@H]2N(NCCCc3ccccc3)C(=O)O[C@]12C`, the MIC against Streptococcus pyogenes [1] was 8 µg/mL (≈ 11 µM); in the test on Haemophilus influenzae, over 128 µg/mL; in the test with Staphylococcus aureus [2] it was 12.5 µg/mL (≈ 17.1 µM); against Streptococcus pneumoniae [3] it was 2 µg/mL (≈ 2.74 µM); with Streptococcus pyogenes [4], 8 µg/mL (≈ 11 µM); in the test on Streptococcus pneumoniae [5], 8 µg/mL (≈ 11 µM). Also, the MIC against Streptococcus pneumoniae [6] worked out at 16 µg/mL (≈ 21.9 µM); with Staphylococcus aureus [7] it was 25 µg/mL (≈ 34.2 µM); in the test on Streptococcus pyogenes [8] it was 2 µg/mL (≈ 2.74 µM).

Take `CC[C@H]1OC(=O)/C(C)=C/[C@H](C)[C@@H](O[C@@H]2O[C@H](C)C[C@H](N(C)C)[C@H]2O)[C@@](C)(OC)C[C@@H](C)C(=O)[C@H](C)[C@H]2N(NCCCc3ccccc3N)C(=O)O[C@]12C`: the MIC in the test with Streptococcus pyogenes [1] was 1 µg/mL (≈ 1.34 µM); in the test with Haemophilus influenzae, 16 µg/mL (≈ 21.5 µM); against Staphylococcus aureus [2], 0.39 µg/mL (≈ 0.524 µM); against Streptococcus pneumoniae [3] it was 0.03 µg/mL (≈ 0.0403 µM); with Streptococcus pyogenes [4] it was 128 µg/mL (≈ 172 µM); with Streptococcus pneumoniae [6], over 128 µg/mL. In addition, the MIC was over 100 µg/mL against Staphylococcus aureus [7], 0.06 µg/mL (≈ 0.0805 µM) against Streptococcus pyogenes [8] and 0.39 µg/mL (≈ 0.524 µM) against Staphylococcus aureus [9].

With `CC[C@H]1OC(=O)/C(C)=C/[C@H](C)[C@@H](O[C@@H]2O[C@H](C)C[C@H](N(C)C)[C@H]2O)[C@@](C)(OC)C[C@@H](C)C(=O)[C@H](C)[C@H]2N(NCCCc3cccc(N)c3)C(=O)O[C@]12C`, the MIC was 1 µg/mL (≈ 1.34 µM) with Streptococcus pyogenes [1]; 4 µg/mL (≈ 5.37 µM) in the test with Haemophilus influenzae; 0.2 µg/mL (≈ 0.268 µM) in the test with Staphylococcus aureus [2]; 0.03 µg/mL (≈ 0.0403 µM) against Streptococcus pneumoniae [3]; over 128 µg/mL in the test on Streptococcus pyogenes [4]; over 128 µg/mL in the test on Streptococcus pneumoniae [6]. In addition, the MIC with Staphylococcus aureus [7] was over 100 µg/mL; against Streptococcus pyogenes [8], 0.03 µg/mL (≈ 0.0403 µM); in the test with Staphylococcus aureus [9] it was 0.2 µg/mL (≈ 0.268 µM).

For the compound `CC[C@H]1OC(=O)/C(C)=C/[C@H](C)[C@@H](O[C@@H]2O[C@H](C)C[C@H](N(C)C)[C@H]2O)[C@@](C)(OC)C[C@@H](C)C(=O)[C@H](C)[C@H]2N(NCc3c(O)ccc4ccccc34)C(=O)O[C@]12C`, the MIC in the test on Streptococcus pyogenes [1] is 0.5 µg/mL (≈ 0.651 µM); in the test with Haemophilus influenzae, 8 µg/mL (≈ 10.4 µM); with Staphylococcus aureus [2], 0.2 µg/mL (≈ 0.26 µM); in the test with Streptococcus pneumoniae [3], 0.03 µg/mL (≈ 0.0391 µM); against Streptococcus pyogenes [4], 32 µg/mL (≈ 41.7 µM); against Streptococcus pneumoniae [5] it was 0.25 µg/mL (≈ 0.326 µM). The MIC with Streptococcus pneumoniae [6] was 32 µg/mL (≈ 41.7 µM); in the test with Staphylococcus aureus [7] it was 100 µg/mL (≈ 130 µM); with Streptococcus pyogenes [8], 0.06 µg/mL (≈ 0.0781 µM).

As for `CC[C@H]1OC(=O)/C(C)=C/[C@H](C)[C@@H](O[C@@H]2O[C@H](C)C[C@H](N(C)C)[C@H]2O)[C@@](C)(OC)C[C@@H](C)C(=O)[C@H](C)[C@H]2N(NCCCn3cnc(-c4ccccc4)c3)C(=O)O[C@]12C`, the MIC in the test on Streptococcus pyogenes [1] turned out to be 1 µg/mL (≈ 1.26 µM); in the test on Haemophilus influenzae, 8 µg/mL (≈ 10.1 µM); against Staphylococcus aureus [2] it was 0.2 µg/mL (≈ 0.251 µM); against Streptococcus pneumoniae [3], 0.03 µg/mL (≈ 0.0377 µM); in the test on Streptococcus pyogenes [4] it was 128 µg/mL (≈ 161 µM); in the test with Streptococcus pneumoniae [5], 0.5 µg/mL (≈ 0.628 µM). The MIC in the test with Streptococcus pneumoniae [6] is over 128 µg/mL; against Staphylococcus aureus [7], over 100 µg/mL; in the test on Streptococcus pyogenes [8], 0.03 µg/mL (≈ 0.0377 µM).

As for `CC[C@H]1OC(=O)/C(C)=C/[C@H](C)[C@@H](O[C@@H]2O[C@H](C)C[C@H](N(C)C)[C@H]2O)[C@@](C)(OC)C[C@@H](C)C(=O)[C@H](C)[C@H]2N(NCc3ccc(SC)cc3)C(=O)O[C@]12C`, the MIC in the test on Streptococcus pyogenes [1] came out at 1 µg/mL (≈ 1.34 µM); against Haemophilus influenzae it was 8 µg/mL (≈ 10.7 µM); in the test with Staphylococcus aureus [2], 0.39 µg/mL (≈ 0.521 µM); with Streptococcus pneumoniae [3], 0.03 µg/mL (≈ 0.0401 µM); with Streptococcus pyogenes [4], 64 µg/mL (≈ 85.6 µM); in the test with Streptococcus pneumoniae [5], 0.5 µg/mL (≈ 0.668 µM). Further, the MIC was 64 µg/mL (≈ 85.6 µM) with Streptococcus pneumoniae [6], over 100 µg/mL with Staphylococcus aureus [7] and 0.03 µg/mL (≈ 0.0401 µM) against Streptococcus pyogenes [8].

Turning to `CC[C@H]1OC(=O)/C(C)=C/[C@H](C)[C@@H](O[C@@H]2O[C@H](C)C[C@H](N(C)C)[C@H]2O)[C@@](C)(OC)C[C@@H](C)C(=O)[C@H](C)[C@H]2N(NCCCc3ccc(N)cc3)C(=O)O[C@]12C`, the MIC against Streptococcus pyogenes [1] is 1 µg/mL (≈ 1.34 µM); in the test with Haemophilus influenzae, 4 µg/mL (≈ 5.37 µM); in the test with Staphylococcus aureus [2], 0.39 µg/mL (≈ 0.524 µM); against Streptococcus pneumoniae [3] it was 0.03 µg/mL (≈ 0.0403 µM); against Streptococcus pyogenes [4], over 128 µg/mL; against Streptococcus pneumoniae [5] it was 1 µg/mL (≈ 1.34 µM). The MIC in the test on Streptococcus pneumoniae [6] was over 128 µg/mL; with Staphylococcus aureus [7] it was over 100 µg/mL; against Streptococcus pyogenes [8] it was 0.03 µg/mL (≈ 0.0403 µM).
